Measured values published in patent publication US20130203084A1, “SPECIFIC DETECTION OF HUMAN CHORIONIC GONADOTROPIN BETA SUBUNIT TYPE II PRODUCED BY TROPHOBLASTIC AND NEOPLASTIC CELLS” (Universite Paris Descartes, priority 2010, published 2013).

These substances were tested on binding of 125I-HCGβ to monoclonal antibody FBT11-II (assay: Competitive inhibition assay with synthetic peptides (125I-HCGβ tracer)). Conditions: increasing concentrations of unlabeled peptide; 4° C. for 18 h; FIG. 2.
Experimental: Competitive inhibition assays were performed as previously described (20). Briefly, ^125I labelled HCGβ was employed as the tracer. All experiments were performed in 50 mM phosphate buffer, pH 7.5, containing 154 mM NaCl, 0.02% sodium azide, and 1% bovine serum albumin. First, we determined the dilution of FBT11-II which produced a 50% binding to ^125I-HCGβ (30,000 cpm) in the absence of peptide. Then, competitive inhibition assays were performed with the defined dilution of antibody. Displacement curves were generated in the presence of increasing concentrations of unlabeled peptides as follows: 100 μl of ^125I—HCGIβ, 100 μl of monoclonal antibody, and 50 μl of the competitive inhibitor were incubated simultaneously at 4° C. for 18 h. The antigen-antibody complex was then precipitated by adding normal human serum diluted (1:3) in phosphate buffer (100 μl) and 1 ml of 20% polyethylene glycol. After centrifugation, the pellet was counted.
Since it was previously shown that FBT11 recognizes residues 1 through 7 and 82 through 92 of the free HCGβ subunit (20), in this study we examined whether the differences in the N-terminal sequence of HCGβ altered the recognition of FBT11-II. We performed inhibition assays with peptides spanning residues 1 through 7 to determine mAb FBT11-II specificity. We used three peptides analogous to sequences 1-7 of HCGβ encoded by type I gene (SREMLRP, SEQ ID NO: 4), 1-7 of HCGβ encoded by type II genes (SKEPLRP, SEQ ID NO: 3) and 1-7 of LHβ (SREPLRP, SEQ ID NO: 5) (FIG. 2). First, we determined the dilution of FBT11-II which produced a 50% binding to ^125I-HCGβ in the absence of peptide. Then, competitive inhibition assays were performed with the defined dilution of antibody. Displacement curves were generated in the presence of increasing concentrations of unlabeled peptides.

Inhibition of 125I-HCGβ binding to antibody FBT11-II (displacement of bound tracer) | Substance
highest potency | SKEPLRP (Synthetic 7-mer peptides corresponding to residues 1 through 7 of HCGbeta encoded by type II genes beta3, beta5 and beta8)
unable to inhibit | SREMLRP (Synthetic 7-mer peptides corresponding to residues 1 through 7 of HCGbeta encoded by type I gene beta7)
to a lesser degree than SKEPLRP | SREPLRP (Synthetic 7-mer peptides corresponding to residues 1 through 7 of the LHbeta gene)
